Experimental findings from US20240252654A1, “IMPROVED SMALL MOLECULES” (University of Dundee, priority 2020, published 2024) are described below.

Data set [1] has as its target T1, HiBiT-BRD4 (Homo sapiens, UniProt O60885).
T1 construct: endogenously HiBiT tag the N-terminal genomic loci of BRD2, BRD3, or BRD4; endogenous in cells; host or cells: HEK293 stably expressing LgBiT, CRISPR/Cas9 edited
Put plainly: NanoBRET target engagement, permeabilized and live cells. The data set is classed as cell-based. The conditions noted are these: for IC80: live cell format, unit given with each value, read-out: IC80 for tracer displacement; for binding to endogenous HiBiT-BRD4: permeabilized cells. On the procedure: Cells were treated with a fluorescent BET tracer, then incubated with the indicated compounds at various concentrations to measure competitive displacement.
(§1) NanoBRET Target Engagement and Residence Time. For target engagement experiments in live and permeabilized cells, CRISPR HiBiT-BRD4 HEK293 cells stably expressing LgBiT were plated into white 96-well tissue culture plates at a density of 2×10^4 cells/well. Cells were equilibrated for 1 h with energy transfer probes and the indicated test compound prior to NanoBRET measurements. NanoBRET tracers were prepared at a working concentration of 20× in tracer dilution buffer (12.5 mM HEPES, 31.25% PEG-400, pH 7.5). NanoBRET BRD Tracer-02 was added to cells at a final concentration of 0.5 μM. To measure NanoBRET in live cells, NanoBRET NanoGlo Substrate and Extracellular NanoLuc Inhibitor (Promega) were added according to the manufacturer's recommended protocol, and filtered luminescence was measured on a GloMax Discover luminometer equipped with 450 nm BP filter (donor) and 600 nm LP filter (acceptor) using 0.3 s integration time. To measure NanoBRET in permeabilized cells, digitonin was added to the cells to a final concentration of 50 μg/mL and Extracellular NIuc inhibitor was omitted during the detection step. […] Cells were incubated in 15 mL conical tubes with caps loosened in a tissue culture incubator for 1 h. Following incubation, cells were spun at 300×g for 5 min, washed once with Opti-MEM, spun a second time at 300×g for 5 min, then resuspended with fresh Opti-MEM before plating at 2×10^4 cells/well. NanoBRET BRD Tracer-02 was added at a final concentration of 0.5 μM cells and kinetic NanoBRET measurements were collected on a GloMax Discover. NanoBRET ratios were expressed in milliBRET units and calculated according to the equation in the NanoBRET Ubiquitination, Ternary Complex and Biosensor Experiments section.

Data set [2] concerns the target T1, HiBiT-BRD4. As to the kind of experiment: NanoBRET live cell residence time. It counts as cell-based. The conditions noted are these: live cells. On the procedure: as §1
The subject of data set [3] is MV4; 11 cells. As to the kind of experiment: Correlative cell viability in cMyc-HiBiT MV4;11 cells (CellTiter-Glo). It counts as cell-based. The conditions noted are these: 1 nM, after 6 h. How it is done: Monitoring cMyc Loss and Cell Viability in MV4; 11 Cells. CRISPR cMyc-HiBiT MV4; 11 cells (Promega) were plated at a density of 5×10^4 cells per well in solid, white 96-well tissue culture plates (Corning Costar #3917). Following an overnight incubation, they were treated with 1-100 nM concentration of the indicated compounds and at the plotted time points, cMyc levels were determined using luminescent measurement with NanoGlo HiBiT lytic reagent (Promega). Replicate plate of all compound treatments were prepared and at identical timepoints as the protein level measurements, cell viability was measured using Cell-Titer Glo (Promega). Plates were shaken on an orbital shaker for 10-20 min before reading luminescence on a GloMax Discover Microplate Reader (Promega).

Data set [4] deals with VHL and full-length BRD4 WT, N140F, or N433F. Put plainly: Kinetic NanoBRET ternary complex assay, NanoLuc-BRD4 with HaloTag-VHL. The data set is classed as cell-based, human. On the procedure:
NanoBRET Ubiquitination, Ternary Complex, and Biosensor Experiments. For endogenous live cell BET:Ubiquitin and BET:VHL assays, CRISPR HiBiT-BRD2, HiBiT-BRD3, and HiBiT-BRD4 HEK293 cells stably expressing LgBiT were transfected with 2 μg of HaloTag-UBB or HaloTag-VHL vectors in 6-well plates using FuGENE HD (Promega). For full transient NanoBRET experiments with NanoLuc-BRD4 WT, N433F, or N140F mutants, HEK293 cells (8×10^5) were co-transfected with 0.02 μg NanoLuc-BRD4 and 2 μg of HaloTag-VHL vectors. For transient NanoBRET experiments with the BRD4 NL-BD1-BD2-HT biosensor containing either the WT tandem BD1-BD2 domain (AA 44-460) or containing the N433F mutation, HEK293 cells (8×10^5) were transfected with 0.02 μg biosensor plasmid and 2 μg carrier DNA. […] NanoBRET NanoGlo (Promega) substrate was added and BRET was measured two hours post-compound treatment using a GloMax Discover Microplate Reader (Promega). Dual filtered luminescence was collected with a 460/80 nm bandpass filter and a 610 nm long pass filter (acceptor, HaloTag NanoBRET ligand) using an integration time of 0.5 s. For all NanoBRET experiments, background subtracted NanoBRET ratios expressed in milliBRET units were calculated from the equation: […]

For data set [5], the system named is 22Rv1 cells. As to the kind of experiment: PARP cleavage immunoblot in 22Rv1 cells. The data set is classed as cell-based. The conditions noted are these: 22Rv1, 10 nM, 24 h (MT1, MZ1 up to 48 h). On the procedure: Next, the inventors assessed the functional effects of SIM1 on the viability of 22Rv1 cancer cells. […] Cells died of apoptosis as indicated by prevented cleavage of PARP upon co-treatment with QVD-OPh, a pan-caspase inhibitor, and not of necroptosis, as shown by co-treatment with Necrostatin-1 (FIG. 3d and FIG. 10a).
Degradation assays. MV4; 11 cells were seeded at 1×10^6 cells/mL of 10 cm dishes 12-24 h before treatment. 22Rv1 and HEK293 cells were seeded at 2.5-6×10^5 cells/well of 6 well plates 12-24 h before treatment. Cells were treated with test compounds with and without inhibitors as indicated or an equivalent volume of DMSO and lysed at the stated time point. For lysis, cells were washed twice in ice cold PBS (Invitrogen) then lysed in 250 μL/plate for MV4; 11 cells or 80 μL/well for 22Rv1 and HEK293 cells of ice cold lysis buffer containing 50 mM Tris hydrochloride pH 7.4, 150 mM sodium chloride, 1 mM EDTA pH 7.4, 1% v/v Triton X-100, 1×Halt™ Protease Inhibitor Cocktail (ThermoFisher). […] Protein concentration was determined by BCA assay (Pierce) and the absorbance at 562 nm measured by spectrophotometry (NanoDrop ND1000). […] Bands were detected using a ChemiDoc MP imaging system (BioRad) and quantified (Image Studio Lite, version 5.2) with normalisation to β-actin and the DMSO control per time point. […]

Data set [6] relates to BRD2 and BRD4. As to the kind of experiment: Dose-response degradation immunoblot in RCC4-HA-VHL cells. It counts as cell-based. The settings on record: 6 h, 500 nM to 6.4 pM. How it is done:
Compound MN674 was designed and synthesised as another analogue of SIM1. […] MN674 was tested in the mammalian cell line RCC4-HA-VHL in a dose-response degradation assay. The assay involved immunoblots (see FIG. 21 for raw western blot data and FIG. 22 for dose-response curves) displaying 6 hour treatments of eight 5-fold serial dilutions from 500 nM to 6.4 pM of each compound. […] RCC4-HA-VHL cells were exposed to eight 5-fold serial dilutions (from 500 nM to […]) of heterotrivalent Bet-Bet-VHL PROTACs SIM1 and MN674 for 6 hour treatments, before lysates were harvested and analysed on immunoblots (FIG. 21). A Bio-Rad MP imaging system was used for fluorescence detection of BRD2 (IRDye 800CW), BRD4_long (IRDye 800CW), BRD4_short (IRDye 800CW) and house-keeping gene Tubulin (Rhodamine). The intensities of the bands were determined using ImageLab software and all BET protein intensities normalised to Tubulin in order to convert them into a percentage band intensity rationalised to the 0.1% DMSO-only control. These intensities were then plotted in GraphPad Prism for Dose-Response [Inhibition] Variable slope (four parameter) analyses to generate the curves for BRD2 (FIG. 22a) and BRD4 (FIG. 22b), to determine the DC50 values presented in Table 3 (FIG. 20). The experiment is representative of n=2 i.e. biological duplicate.

Turning to `Cc1ncsc1-c1ccc(CNC(=O)[C@@H]2C[C@H](O)CN2C(=O)[C@@H](NC(=O)COCC(C)(COCCOCCOCCNC(=O)C[C@@H]2N=C(c3ccc(Cl)cc3)c3c(sc(C)c3C)-n3c(C)nnc32)COCCOCCOCCNC(=O)C[C@@H]2N=C(c3ccc(Cl)cc3)c3c(sc(C)c3C)-n3c(C)nnc32)C(C)(C)C)cc1` [cis-SIM1, N,N′-(11-((2-(((S)-1-((2S,4S)-4-hydroxy-2-((4-(4-methylthiazol-5-yl)benzyl)carbamoyl)pyrrolidin-1-yl)-3,3-dimethyl-1-oxobutan-2-yl)amino)-2-oxoethoxy)methyl)-11-methyl-3,6,9,13,16,19-hexaoxahenicosane-1,21-diyl)bis(2-((S)-4-(4-chlorophenyl)-2,3,9-trimethyl-6H-thieno[3,2-f][1,2,4]triazolo[4,3-a][1,4]diazepin-6-yl)acetamide)], the cell permeability entry in data set [1] (inferred from live versus permeabilized cells) was “readily cell-permeable”. In data set [1], the concentration for an effect of 80% (IC80) turned out to be 0.1 µM; the “binding to endogenous HiBiT-BRD4” value is “near-identical binding affinities and IC50 values”. Also, in data set [1] (live cells), the “shift of binding affinity to BRD4 compared to MT1” value is 10 ×. Further, in data set [2], the “residence time on BRD4” value is “identical displacement kinetics as MT1”. Moreover, the measurable cellular death entry in data set [3] is on record as “not”. For the same compound, the ternary complex formation result in data set [4] is given as “not”.

Consider `Cc1sc2c(c1C)C(c1ccc(Cl)cc1)=N[C@@H](CC(=O)NCCOCCOCCOCCOCCOCCOCCOCCNC(=O)C[C@@H]1N=C(c3ccc(Cl)cc3)c3c(sc(C)c3C)-n3c(C)nnc31)c1nnc(C)n1-2` [MT1], for which, in data set [5], the “PARP cleavage / cell death” value is “did not cause observable PARP cleavage”. Besides, in data set [1], the 80% effect concentration (IC80) is 0.1 µM; the “binding to endogenous HiBiT-BRD4” value is “near-identical binding affinities and IC50 values”. The “residence time on BRD4” value in data set [2] is “longer residence time”. The measurable cellular death result in data set [3] is given as “not”. Moreover, the ternary complex formation result in data set [4] was “not”.

For `Cc1ncsc1-c1ccc(CNC(=O)[C@@H]2C[C@@H](O)CN2C(=O)[C@@H](NC(=O)COCC(C)(COCCOCCNC(=O)C[C@@H]2N=C(c3ccc(Cl)cc3)c3c(sc(C)c3C)-n3c(C)nnc32)COCCOCCNC(=O)C[C@@H]2N=C(c3ccc(Cl)cc3)c3c(sc(C)c3C)-n3c(C)nnc32)C(C)(C)C)cc1` [MN674, N,N′-(8-((2-(((S)-1-((2S,4R)-4-hydroxy-2-((4-(4-methylthiazol-5-yl)benzyl)carbamoyl)pyrrolidin-1-yl)-3,3-dimethyl-1-oxobutan-2-yl)amino)-2-oxoethoxy)methyl)-8-methyl-3,6,10,13-tetraoxapentadecane-1,15-diyl)bis(2-((S)-4-(4-chlorophenyl)-2,3,9-trimethyl-6H-thieno[3,2-f][1,2,4]triazolo[4,3-a][1,4]diazepin-6-yl)acetamide)], the “degradation potency relative to SIM1” value in data set [6] is “comparable in degradation potencies to SIM1”.
